Data: US11572588B2, “Methods of evaluating treatment efficacy and/or treatment duration in mycobacterial diseases” (priority 2017, dated 2023)

Test system: M. tuberculosis Erdman strain
Assay: highly lethal in vitro drug exposure of log-phase M. tuberculosis; killing and pre-rRNA/rRNA by RNAseq and ddPCR
Type: cell-based
Conditions: for pre-rRNA in M tuberculosis that survived exposure (FIG. 5, RNAseq reads): 48 h lethal exposure; for M. tuberculosis killed: 48 h of exposure, lethal dose, log phase culture; for 16S normalized counts, Transcripts per Million (TPM) / 23S normalized counts, Transcripts per Million (TPM) / ETS1 normalized counts, Transcripts per Million (TPM) / ITS1 normalized counts, Transcripts per Million (TPM) / ITS1/23S, Pre-RNA/23S (×10^4) / ETS1/23S, Pre-RNA/23S (×10^4): RNAseq; for ITS1/23S, Pre-RNA/23S (×10^4): control 466; for ETS1/23S, Pre-RNA/23S (×10^4): control 514; for effect on ETS1 and ITS1: relative to control
[1] = lethal in vitro exposure, Day 2
[2] = lethal in vitro exposure, Day 7
[3] = lethal in vitro exposure, Day 5

COc1nc2ccc(Br)cc2cc1[C@@H](c1ccccc1)[C@@](O)(CCN(C)C)c1cccc2ccccc12 [Bedaquiline, bedaquiline]
pre-rRNA in M tuberculosis that survived exposure (FIG. 5, RNAseq reads): negligible pre-rRNA
M. tuberculosis killed: ~99.9%
16S normalized counts, Transcripts per Million (TPM) [1]: 343,978 TPM
23S normalized counts, Transcripts per Million (TPM) [1]: 654,924 TPM
ETS1 normalized counts, Transcripts per Million (TPM) [1]: 548 TPM
ITS1 normalized counts, Transcripts per Million (TPM) [1]: 551 TPM
ITS1/23S, Pre-RNA/23S (×10^4) [1]: 8.4 ×10^4
ETS1/23S, Pre-RNA/23S (×10^4) [1]: 8.4 ×10^4
16S normalized counts, Transcripts per Million (TPM) [2]: 208,644 TPM
23S normalized counts, Transcripts per Million (TPM) [2]: 788,154 TPM
ETS1 normalized counts, Transcripts per Million (TPM) [2]: 1,778 TPM
ITS1 normalized counts, Transcripts per Million (TPM) [2]: 1,425 TPM
ITS1/23S, Pre-RNA/23S (×10^4) [2]: 18.1 ×10^4
ETS1/23S, Pre-RNA/23S (×10^4) [2]: 22.6 ×10^4
decrease of ETS1/23S relative to control (lethal in vitro exposure): > 20 fold
decrease of ITS1/23S relative to control (lethal in vitro exposure): > 20 fold

NNC(=O)c1ccncc1 [Isoniazid, isoniazid]
pre-rRNA in M tuberculosis that survived exposure (FIG. 5, RNAseq reads): abundant pre-rRNA
M. tuberculosis killed: 99.99%
16S normalized counts, Transcripts per Million (TPM) [1]: 423,197 TPM
23S normalized counts, Transcripts per Million (TPM) [1]: 556,210 TPM
ETS1 normalized counts, Transcripts per Million (TPM) [1]: 12,092 TPM
ITS1 normalized counts, Transcripts per Million (TPM) [1]: 8,502 TPM
ITS1/23S, Pre-RNA/23S (×10^4) [1]: 153 ×10^4
ETS1/23S, Pre-RNA/23S (×10^4) [1]: 217 ×10^4
16S normalized counts, Transcripts per Million (TPM) [2]: 451,670 TPM
23S normalized counts, Transcripts per Million (TPM) [2]: 519,579 TPM
ETS1 normalized counts, Transcripts per Million (TPM) [2]: 16,987 TPM
ITS1 normalized counts, Transcripts per Million (TPM) [2]: 11,763 TPM
ITS1/23S, Pre-RNA/23S (×10^4) [2]: 226 ×10^4
ETS1/23S, Pre-RNA/23S (×10^4) [2]: 327 ×10^4
decrease of ETS1/23S (lethal in vitro exposure): ~50%
decrease of ITS1/23S (lethal in vitro exposure): ~50%

CO[C@H]1/C=C/O[C@@]2(C)Oc3c(C)c(O)c4c(O)c(c(/C=N/N5CCN(C)CC5)c(O)c4c3C2=O)NC(=O)/C(C)=C\C=C\[C@H](C)[C@H](O)[C@@H](C)[C@@H](O)[C@@H](C)[C@H](OC(C)=O)[C@@H]1C [Rifampin, rifampin]
pre-rRNA in M tuberculosis that survived exposure (FIG. 5, RNAseq reads): negligible pre-rRNA
M. tuberculosis killed: 99.99%
16S normalized counts, Transcripts per Million (TPM) [1]: 375,111 TPM
23S normalized counts, Transcripts per Million (TPM) [1]: 624,759 TPM
ETS1 normalized counts, Transcripts per Million (TPM) [1]: 58 TPM
ITS1 normalized counts, Transcripts per Million (TPM) [1]: 72 TPM
ITS1/23S, Pre-RNA/23S (×10^4) [1]: 1.15 ×10^4
ETS1/23S, Pre-RNA/23S (×10^4) [1]: 0.92 ×10^4
16S normalized counts, Transcripts per Million (TPM) [3]: 306,538 TPM
23S normalized counts, Transcripts per Million (TPM) [3]: 693,196 TPM
ETS1 normalized counts, Transcripts per Million (TPM) [3]: 30 TPM
ITS1 normalized counts, Transcripts per Million (TPM) [3]: 235 TPM
ITS1/23S, Pre-RNA/23S (×10^4) [3]: 3.39 ×10^4
ETS1/23S, Pre-RNA/23S (×10^4) [3]: 0.44 ×10^4
decrease of ETS1/23S relative to control (lethal in vitro exposure): > 100 fold
decrease of ITS1/23S relative to control (lethal in vitro exposure): > 100 fold
effect on ETS1 and ITS1 (lethal in vitro exposure): nearly complete abrogated ETS1 and ITS1

[H]/N=C(/N)N[C@H]1[C@H](O)[C@@H](O)[C@H](O[C@@H]2O[C@@H](C)[C@](O)(C=O)[C@H]2O[C@@H]2O[C@@H](CO)[C@H](O)[C@@H](O)[C@@H]2NC)[C@@H](N/C(N)=N\[H])[C@@H]1O [Streptomycin, streptomycin]
pre-rRNA in M tuberculosis that survived exposure (FIG. 5, RNAseq reads): abundant pre-rRNA
M. tuberculosis killed: 99.99%
16S normalized counts, Transcripts per Million (TPM) [1]: 453,930 TPM
23S normalized counts, Transcripts per Million (TPM) [1]: 430,311 TPM
ETS1 normalized counts, Transcripts per Million (TPM) [1]: 78,749 TPM
ITS1 normalized counts, Transcripts per Million (TPM) [1]: 37,010 TPM
ITS1/23S, Pre-RNA/23S (×10^4) [1]: 860 ×10^4
ETS1/23S, Pre-RNA/23S (×10^4) [1]: 1,830 ×10^4
16S normalized counts, Transcripts per Million (TPM) [3]: 406,987 TPM
23S normalized counts, Transcripts per Million (TPM) [3]: 488,000 TPM
ETS1 normalized counts, Transcripts per Million (TPM) [3]: 72,994 TPM
ITS1 normalized counts, Transcripts per Million (TPM) [3]: 32,019 TPM
ITS1/23S, Pre-RNA/23S (×10^4) [3]: 656 ×10^4
ETS1/23S, Pre-RNA/23S (×10^4) [3]: 1,496 ×10^4
effect on ETS1 and ITS1 (lethal in vitro exposure): increased ETS1 and ITS1
